Results published in ChEMBL document CHEMBL1201862, “PubChem BioAssay data set” (2004).
Activity calls are given as the source filed them.

Columns and labels:
[1] = molecular target: T1, Luciferin 4-monooxygenase (Photinus pyralis, UniProt P08659); experiment: Counter Screen for Luciferase-based Assay Positives. [Related pubchem assays: 620, 618, 411 ]
Cytochrome P450 2C19 = Cytochrome P450 2C19 (Homo sapiens, UniProt P33261); experiment: Cytochrome panel assay with activity outcomes. Panel member name: p450-cyp2c19 Compounds with AC50 equal or less than 10 uM are considered active; format: functional; settings: read-out: AC50
Cytochrome P450 2C19, sequence (P33261 whole entry): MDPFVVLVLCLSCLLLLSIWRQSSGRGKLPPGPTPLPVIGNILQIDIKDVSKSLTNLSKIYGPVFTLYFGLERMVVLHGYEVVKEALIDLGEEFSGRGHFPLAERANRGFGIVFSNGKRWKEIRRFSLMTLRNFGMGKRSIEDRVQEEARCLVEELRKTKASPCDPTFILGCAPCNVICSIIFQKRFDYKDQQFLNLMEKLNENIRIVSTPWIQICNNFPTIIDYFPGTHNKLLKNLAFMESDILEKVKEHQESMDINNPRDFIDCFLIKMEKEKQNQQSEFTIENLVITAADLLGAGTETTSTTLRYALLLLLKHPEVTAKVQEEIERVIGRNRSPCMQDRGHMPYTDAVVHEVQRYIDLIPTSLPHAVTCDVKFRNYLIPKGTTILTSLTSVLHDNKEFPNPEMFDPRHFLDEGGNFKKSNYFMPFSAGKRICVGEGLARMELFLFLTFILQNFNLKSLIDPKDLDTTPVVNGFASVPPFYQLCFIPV

[2] = molecular target: T2, Heat shock factor protein 1 (Mus musculus, UniProt P38532); experiment: inhibition of MG132-induced HSE-luciferase signal, confirmation, cell-based, NIH3T3, luminescence, dose retest (AID 2382); format: functional;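 also: NIH3T3 fibroblasts with HSF1-driven luciferase reporter stressed by proteasome inhibitor MG132; luminescence from HSF1-driven luciferase expression after 8 hours of MG132 stress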
T2 sequence (P38532 whole entry): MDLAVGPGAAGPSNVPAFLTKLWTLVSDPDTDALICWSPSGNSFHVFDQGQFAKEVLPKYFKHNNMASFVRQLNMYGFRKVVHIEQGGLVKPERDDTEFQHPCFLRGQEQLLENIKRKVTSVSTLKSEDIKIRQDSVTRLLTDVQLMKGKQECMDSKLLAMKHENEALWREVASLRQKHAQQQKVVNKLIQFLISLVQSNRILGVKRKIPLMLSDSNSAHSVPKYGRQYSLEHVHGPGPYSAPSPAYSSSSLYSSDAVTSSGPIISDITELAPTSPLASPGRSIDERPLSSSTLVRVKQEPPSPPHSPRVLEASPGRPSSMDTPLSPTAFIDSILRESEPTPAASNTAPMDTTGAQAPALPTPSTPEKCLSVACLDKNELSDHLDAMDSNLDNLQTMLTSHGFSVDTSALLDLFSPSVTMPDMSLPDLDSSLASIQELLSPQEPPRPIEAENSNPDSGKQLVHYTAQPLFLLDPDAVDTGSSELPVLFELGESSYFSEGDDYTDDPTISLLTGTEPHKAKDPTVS

HT-1080 = experiment: cytotoxicity in HT1080 fibrosarcoma cells, cell-based, fluorescence readout (AID 620); format: functional; settings: Homo sapiens
[3] = A cytotoxicity screen of small molecule inhibitors of the PhoP region in Salmonella typhi identified in the primary screen. [Related pubchem assays: 1850, 1864, 1985 ]; format: functional
Beta-galactosidase = Beta-galactosidase (Escherichia coli, UniProt Q8VNN2); experiment: beta-galactosidase enzyme inhibitors and activators, dose response, artefact control for CCR6 antagonist project, biochemical, E. coli enzyme, set 3 (AID 504712); format: functional
Beta-galactosidase, sequence (Q8VNN2 whole entry): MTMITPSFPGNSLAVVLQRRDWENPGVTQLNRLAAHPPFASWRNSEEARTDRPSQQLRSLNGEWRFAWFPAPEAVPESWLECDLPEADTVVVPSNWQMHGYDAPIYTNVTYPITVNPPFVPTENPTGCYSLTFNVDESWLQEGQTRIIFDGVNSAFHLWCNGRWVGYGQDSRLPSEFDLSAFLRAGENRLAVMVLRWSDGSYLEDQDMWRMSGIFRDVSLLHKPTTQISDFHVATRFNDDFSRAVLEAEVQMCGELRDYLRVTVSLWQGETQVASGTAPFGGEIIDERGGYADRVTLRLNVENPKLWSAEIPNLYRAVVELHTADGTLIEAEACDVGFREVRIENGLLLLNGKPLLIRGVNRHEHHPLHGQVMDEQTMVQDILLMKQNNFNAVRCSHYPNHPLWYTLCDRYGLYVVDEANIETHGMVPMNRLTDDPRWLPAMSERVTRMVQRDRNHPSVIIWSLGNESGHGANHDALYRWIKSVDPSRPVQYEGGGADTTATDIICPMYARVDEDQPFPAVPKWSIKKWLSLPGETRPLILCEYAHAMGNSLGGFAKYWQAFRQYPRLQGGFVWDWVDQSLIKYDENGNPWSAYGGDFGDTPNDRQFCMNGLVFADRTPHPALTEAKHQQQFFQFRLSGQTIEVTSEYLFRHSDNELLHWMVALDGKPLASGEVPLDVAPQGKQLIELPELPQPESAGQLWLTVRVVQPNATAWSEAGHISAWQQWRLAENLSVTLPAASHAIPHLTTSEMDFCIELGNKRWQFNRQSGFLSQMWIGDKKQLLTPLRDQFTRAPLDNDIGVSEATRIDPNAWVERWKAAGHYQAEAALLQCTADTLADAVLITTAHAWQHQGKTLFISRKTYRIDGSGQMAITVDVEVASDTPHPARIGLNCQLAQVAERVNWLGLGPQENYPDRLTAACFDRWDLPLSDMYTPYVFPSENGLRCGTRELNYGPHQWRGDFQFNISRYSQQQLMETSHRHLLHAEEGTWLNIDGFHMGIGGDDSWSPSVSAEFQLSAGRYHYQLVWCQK

[4] = HepG2 cell cytotoxicity, dose response, cytotoxicity control for non-replicating M. tuberculosis project (AID 489018); format: functional; settings: Mycobacterium tuberculosis
[5] = cytotoxicity toward NIH3T3 fibroblasts, dose response, counter-screen, cell-based, ATP luminescence, mouse fibroblasts (AID 2010); format: functional;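 also: cells exposed to compound for about 90 hours before reading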
[6] = inhibitors of intracellular T. cruzi replication, confirmation, NIH3T3 host cells, beta-gal luminescence (AID 2044); format: functional, cell-based;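 also: intracellular parasites grown in NIH/3T3 mouse fibroblasts as host cells; luminescent beta-galactosidase reporter signal from transgenic T. cruzi replicating inside host cells; inhibitors lower the luminescence signal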
[7] = microbe, parasite or virus in culture; format: functional; settings: Mycobacterium tuberculosis
cells = format: functional
[8] = THP-1 cell cytotoxicity, dose response, cytotoxicity control for non-replicating M. tuberculosis project (AID 489025); format: functional
[9] = Vero E6 cell cytotoxicity, dose response, cytotoxicity control for non-replicating M. tuberculosis project, secondary assay (AID 492998); format: functional, VeroE6; settings: Vero C1008
[10] = HIV-1 Env-mediated cell fusion inhibitors, dose response, CCR5-tropic Env (AID 2279); format: functional
[11] = Luminescence Cell-Based Dose Confirmation HTS to Identify Inhibitors of Platelet Dense Granule Release. [Related pubchem assays: 1663 (Primary HTS), 1678 (Summary of Project)]; format: functional
[12] = molecular target: T1, Luciferin 4-monooxygenase; experiment: firefly luciferase enzyme inhibitors, dose response, biochemical, luminescence (AID 1891)
[13] = molecular target: T3, Rac GTPase-activating protein 1 (Homo sapiens, UniProt Q9H0H5); experiment: MgcRacGAP GTPase-activating activity inhibitors, confirmation, biochemical, ADP Hunter fluorescence, primary and confirmatory (AID 624330); format: functional
T3 sequence (Q9H0H5 whole entry): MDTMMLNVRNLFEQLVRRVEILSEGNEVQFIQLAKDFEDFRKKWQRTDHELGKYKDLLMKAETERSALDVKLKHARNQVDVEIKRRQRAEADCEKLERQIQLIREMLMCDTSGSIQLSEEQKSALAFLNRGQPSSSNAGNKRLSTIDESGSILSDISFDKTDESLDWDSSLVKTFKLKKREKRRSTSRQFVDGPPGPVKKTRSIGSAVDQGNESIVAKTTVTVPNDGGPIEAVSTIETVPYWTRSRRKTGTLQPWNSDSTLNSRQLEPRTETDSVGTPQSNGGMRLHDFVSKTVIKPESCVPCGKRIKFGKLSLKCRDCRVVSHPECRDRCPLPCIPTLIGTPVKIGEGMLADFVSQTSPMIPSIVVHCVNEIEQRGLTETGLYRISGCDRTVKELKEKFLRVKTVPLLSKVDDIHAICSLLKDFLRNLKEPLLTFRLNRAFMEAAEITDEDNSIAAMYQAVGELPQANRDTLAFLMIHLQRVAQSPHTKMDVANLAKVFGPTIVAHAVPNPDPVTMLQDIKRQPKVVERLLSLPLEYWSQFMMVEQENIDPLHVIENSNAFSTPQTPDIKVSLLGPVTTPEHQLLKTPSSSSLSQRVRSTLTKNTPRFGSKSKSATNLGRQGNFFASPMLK

Aminopeptidase N = molecular target: T4, Aminopeptidase N (Plasmodium falciparum FcB1/Columbia, UniProt O96935); experiment: P. falciparum M1AAP inhibitors, biochemical, fluorogenic H-Leu-NHMec substrate, 1536-well (AID 1445); design: species or system Plasmodium falciparum 3D7, 3D7
T4 sequence (O96935 whole entry): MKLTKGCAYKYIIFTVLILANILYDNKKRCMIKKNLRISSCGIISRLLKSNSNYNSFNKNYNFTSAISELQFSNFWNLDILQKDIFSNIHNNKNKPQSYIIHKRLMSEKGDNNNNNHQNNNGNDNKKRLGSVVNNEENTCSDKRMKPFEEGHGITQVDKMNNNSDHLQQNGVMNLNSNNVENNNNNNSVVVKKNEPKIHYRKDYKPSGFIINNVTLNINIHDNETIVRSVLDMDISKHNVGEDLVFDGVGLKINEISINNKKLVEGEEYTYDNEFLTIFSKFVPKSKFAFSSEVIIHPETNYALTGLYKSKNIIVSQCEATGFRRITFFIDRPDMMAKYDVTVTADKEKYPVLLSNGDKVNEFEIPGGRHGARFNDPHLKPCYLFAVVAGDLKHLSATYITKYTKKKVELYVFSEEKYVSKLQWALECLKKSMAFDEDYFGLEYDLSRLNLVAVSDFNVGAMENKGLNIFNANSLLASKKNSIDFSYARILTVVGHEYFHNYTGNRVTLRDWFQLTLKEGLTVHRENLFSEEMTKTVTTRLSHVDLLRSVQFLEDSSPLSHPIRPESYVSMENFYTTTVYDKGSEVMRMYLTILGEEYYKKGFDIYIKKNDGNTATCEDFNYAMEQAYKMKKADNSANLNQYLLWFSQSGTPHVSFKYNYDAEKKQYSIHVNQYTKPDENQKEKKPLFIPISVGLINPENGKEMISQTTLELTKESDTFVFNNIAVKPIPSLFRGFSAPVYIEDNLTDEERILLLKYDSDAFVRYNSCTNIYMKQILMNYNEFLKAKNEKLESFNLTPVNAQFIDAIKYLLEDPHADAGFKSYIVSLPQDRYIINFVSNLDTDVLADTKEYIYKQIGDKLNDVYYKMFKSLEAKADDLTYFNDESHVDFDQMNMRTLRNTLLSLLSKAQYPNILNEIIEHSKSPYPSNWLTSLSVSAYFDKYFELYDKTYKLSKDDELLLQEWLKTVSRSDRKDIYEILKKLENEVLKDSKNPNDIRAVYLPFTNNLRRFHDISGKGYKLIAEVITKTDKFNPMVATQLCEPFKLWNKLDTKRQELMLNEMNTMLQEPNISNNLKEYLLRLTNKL

[14] = molecular target: T5, Replicative DNA helicase DnaB (Mycobacterium tuberculosis, UniProt P9WMR3); experiment: DnaB intein splicing inhibitors, dose response, biochemical, cell-free fluorescence (AID 449749); format: functional
T5 sequence (P9WMR3 whole entry): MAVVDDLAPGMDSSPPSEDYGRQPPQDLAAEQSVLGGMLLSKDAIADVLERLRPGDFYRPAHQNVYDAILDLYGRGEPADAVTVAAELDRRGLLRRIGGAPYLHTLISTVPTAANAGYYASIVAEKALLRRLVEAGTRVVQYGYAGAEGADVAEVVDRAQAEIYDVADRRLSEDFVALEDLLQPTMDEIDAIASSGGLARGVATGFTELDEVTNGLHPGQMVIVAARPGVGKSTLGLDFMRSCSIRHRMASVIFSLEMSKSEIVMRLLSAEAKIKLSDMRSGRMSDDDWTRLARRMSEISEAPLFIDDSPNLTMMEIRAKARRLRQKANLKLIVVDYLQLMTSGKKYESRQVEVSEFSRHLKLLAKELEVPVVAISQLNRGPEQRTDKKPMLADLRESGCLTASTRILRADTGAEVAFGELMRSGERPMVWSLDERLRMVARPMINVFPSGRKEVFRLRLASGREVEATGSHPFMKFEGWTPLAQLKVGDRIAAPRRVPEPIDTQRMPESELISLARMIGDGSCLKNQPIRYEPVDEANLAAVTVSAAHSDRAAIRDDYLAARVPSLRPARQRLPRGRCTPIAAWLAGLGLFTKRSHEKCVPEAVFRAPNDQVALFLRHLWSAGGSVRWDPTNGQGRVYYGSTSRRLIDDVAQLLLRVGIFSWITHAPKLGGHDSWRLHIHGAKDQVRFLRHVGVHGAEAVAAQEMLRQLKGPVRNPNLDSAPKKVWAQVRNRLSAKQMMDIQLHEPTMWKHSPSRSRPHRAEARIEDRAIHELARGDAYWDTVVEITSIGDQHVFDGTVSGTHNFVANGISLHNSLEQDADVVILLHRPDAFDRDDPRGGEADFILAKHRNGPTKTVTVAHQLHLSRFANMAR

Protein RecA = molecular target: T6, Protein RecA (Mycobacterium tuberculosis, UniProt P9WHJ3); experiment: Fluorescence Cell-Free Homogeneous Dose Retest to Identify Inhibitors of RecA-Intein Splicing Activity. [Related pubchem assays (depositor defined):AID2097, AID2223, AID489010, AID492950]; format: functional
T6 sequence (P9WHJ3 whole entry): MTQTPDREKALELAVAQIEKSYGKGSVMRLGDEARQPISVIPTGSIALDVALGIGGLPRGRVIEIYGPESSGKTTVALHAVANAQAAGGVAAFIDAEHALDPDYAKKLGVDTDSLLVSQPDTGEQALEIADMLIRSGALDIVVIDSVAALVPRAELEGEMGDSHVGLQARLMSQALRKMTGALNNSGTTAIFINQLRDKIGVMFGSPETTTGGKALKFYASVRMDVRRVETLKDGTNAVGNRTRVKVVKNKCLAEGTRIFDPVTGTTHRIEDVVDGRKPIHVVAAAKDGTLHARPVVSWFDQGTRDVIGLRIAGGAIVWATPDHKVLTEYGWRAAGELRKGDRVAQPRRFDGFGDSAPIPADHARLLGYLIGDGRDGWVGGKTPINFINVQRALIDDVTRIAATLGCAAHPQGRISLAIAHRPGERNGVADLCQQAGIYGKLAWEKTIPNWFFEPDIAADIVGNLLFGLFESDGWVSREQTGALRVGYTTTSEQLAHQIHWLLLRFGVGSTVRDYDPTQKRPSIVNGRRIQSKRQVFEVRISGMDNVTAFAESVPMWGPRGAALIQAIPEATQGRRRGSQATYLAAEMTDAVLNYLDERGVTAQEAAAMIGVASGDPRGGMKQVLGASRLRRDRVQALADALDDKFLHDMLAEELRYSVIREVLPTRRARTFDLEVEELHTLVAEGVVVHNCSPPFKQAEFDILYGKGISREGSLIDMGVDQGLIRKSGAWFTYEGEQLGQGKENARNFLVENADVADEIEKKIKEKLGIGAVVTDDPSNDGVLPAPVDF

[15] = molecular target: T2, Heat shock factor protein 1; experiment: HSF1 potentiators in luciferase reporter cells, confirmation, cell-based, NIH3T3, luminescence, dose retest (AID 435004); format: functional;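 also: stress induced by proteasome inhibitor MG132 added 30 min after compound; luciferase reporter driven by HSF1 response element in NIH3T3 cells; actives raise luminescence as potentiators of the MG132 stress response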
[16] = cytotoxicity in KRAS-transformed pancreatic duct cells, primary screen, cell-based, fluorescence, HTS (AID 431); format: functional; settings: Homo sapiens;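 also: cell line used: HPDE-C7K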
[17] = cytotoxicity in HPDE-C7 cells, cell-based, fluorescence, HTS (AID 430); format: functional; settings: Homo sapiens

T1 sequence (P08659 whole entry): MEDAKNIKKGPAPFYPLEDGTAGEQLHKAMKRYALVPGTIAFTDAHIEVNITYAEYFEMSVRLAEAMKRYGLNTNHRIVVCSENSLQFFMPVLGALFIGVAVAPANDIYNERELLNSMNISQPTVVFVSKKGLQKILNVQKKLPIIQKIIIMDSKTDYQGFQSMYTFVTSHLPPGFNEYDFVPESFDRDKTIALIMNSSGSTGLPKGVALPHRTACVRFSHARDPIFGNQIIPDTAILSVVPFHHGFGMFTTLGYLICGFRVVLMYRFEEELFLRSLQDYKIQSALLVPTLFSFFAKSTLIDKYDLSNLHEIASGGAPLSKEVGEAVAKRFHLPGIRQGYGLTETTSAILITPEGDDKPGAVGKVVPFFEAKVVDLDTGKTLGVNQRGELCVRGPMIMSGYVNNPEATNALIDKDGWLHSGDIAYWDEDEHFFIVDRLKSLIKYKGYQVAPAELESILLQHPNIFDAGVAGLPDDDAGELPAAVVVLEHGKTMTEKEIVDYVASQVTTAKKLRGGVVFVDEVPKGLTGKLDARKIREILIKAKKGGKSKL

SMILES: CCOC(=O)c1sc2nc3c(cc2c1N)COC(C(C)C)C3 (stereo unspecified)
- EC50 [1]: 2.84 µM (active)
- AC50 (Cytochrome P450 2C19): 22.4 µM (inconclusive)
- EC50 [2]: > 195 µM (not active)
- EC50 (HT-1080): > 50 µM (not active)

SMILES: COc1cccc(N2CCN(C(S)=NCc3ccco3)CC2)c1
- EC50 [3]: > 50 µM (active)

SMILES: CN1C(=O)C(c2c(O)[nH]c3ccccc23)=NC1=S
- IC50 (Beta-galactosidase): > 66.6 µM (inactive)

SMILES: Cc1ccc(NC(=O)COc2ccccc2CNC(C)(C)CC(C)(C)C)cc1
- CC50 [4]: 13.8 µM (active)
- EC50 [5]: 8.6 µM (active)
- EC50 [6]: 1.36 µM (active)
- CC50 [7]: 23.4 µM (active)
- IC50 (cells): 13.4 µM (active)
- CC50 [8]: 18.9 µM (active)
- CC50 [9]: 15.7 µM (active)

SMILES: COc1ccc(-c2nn(-c3ccccc3)cc2/C=C2/SC(=S)N(CCCC(=O)O)C2=O)c(C)c1
- IC50 [10]: 45 µM (active)

SMILES: O=C(Nc1ccc2nc(S)sc2c1)Nc1ccccc1F
- EC50 [3]: > 50 µM (active)

SMILES: Nc1ccc(-c2nc3ccc(N)cc3o2)cc1
- EC50 [1]: 6.3 µM (active)
- EC50 [11]: 25 µM (active)
- EC50 [12]: 20.1 µM (active)
- IC50 [13]: 47.8 µM (active)
- IC50 (Aminopeptidase N): 26.2 µM (active)
- EC50 (HT-1080): > 50 µM (not active)

SMILES: CC(C)(C)NC(=O)CSc1ncnc2c1nnn2Cc1ccccc1Cl
- AC50 [14]: 6.8 µM (active)
- EC50 (Protein RecA): 8.37 µM (active)
- EC50 [15]: 13.3 µM (active)
- EC50 [16]: 14.1 µM (active)
- EC50 [17]: 11.8 µM (active)

SMILES: Cc1occc1C(=O)N/N=C/c1cccs1
- EC50 [3]: > 50 µM (active)

SMILES: Cc1cc(C)c2ccc(/C=N/O)nc2c1O
- CC50 [4]: > 20 µM (active)
- IC50 (cells): 4.25 µM (active)
- CC50 [8]: 22.9 µM (active)
- CC50 [9]: 19.5 µM (active)
